Entries after “also recorded” stand apart in the source; their conditions may differ. Ends that are not written are not given here.
Experiments:
WT-GBM = assay: In vivo play-off phage auditioning, WT-GBM tumor; parameters: species or system murine WT-GBM glioblastoma in athymic nude mice; conditions: phage-displayed peptide; equimolar mix, i.v. 1 × 10^10 pfu/mouse, 2 h circulation, perfusion; Ion-Torrent sequencing; mean, N = 3 mice
Description: (§1) Athymic nude mice (Hsd/Athymic Fox1 nu Harlan) were purchased from Envigo (Netherlands) and maintained under standard housing conditions of the Animal Facility of the Institute of Biomedicine and Translational Medicine, University of Tartu (Tartu, Estonia). For orthotropic GBM tumor models, we used NCH421K, P13, and P3 stem cell-like, WT-GBM cells. The individual GBM cells around 2–3 × 10^5 in 3 μL PBS were intracranially implanted into mice brain 2 mm right and 1 mm anterior to the bregma. U87-MG and PC3 subcutaneous models were induced by injecting 2–9 × 10^6 cells in 100 µl PBS subcutaneously into the right flank of 11–15 week old male and female nude mice. All animal experiments were performed in accordance with the procedures approved by the Committee of Animal Experimentation of Estonian Ministry of Agriculture, permits #42 and #48.
(§2) In vivo play-off was used for internally controlled and competitive systemic phage homing studies in mice bearing tumor xenografts. Phages displaying the candidate TNC-C binding peptides and control peptides were individually amplified and purified by precipitation with PEG-8000 (Sigma-Aldrich, St. Louis, MO, USA), followed by […] gradient ultracentrifugation and dialysis. The phages were pooled at equimolar representation (Table 1 for details) and injected iv at 1 × 10^10 pfu (in 200 µl PBS) in tumor-bearing mice, circulated for 2 h, followed by anesthesia and intracardial perfusion with DMEM. The tumors and organs were collected in lysogeny broth (LB) medium containing 1% NP40, and the tissues were homogenized using a hand-held homogenizer. Phages in the tissue lysate were amplified in E.coli, purified by precipitation with PEG-8000, and DNA was extracted using a DNA extraction kit (High Pure PCR Template Preparation Kit; Roche, Basel, Switzerland). Next-generation sequencing of phage genomic DNA with Ion Torrent system (Thermo Fisher Scientific, Waltham, MA, USA) was used to evaluate the representation of each peptide-phage in the input mixture, in tumors and control organs. The FASTQ data from Ion Torrent were processed using a custom python script that identified the barcodes, constant flanking residues, and extracted the reads of the correct length.

P3 SCL = assay: In vivo play-off phage auditioning, P3 SCL tumor; parameters: species or system P3 stem cell-like glioblastoma in athymic nude mice; conditions: phage-displayed peptide; equimolar mix, i.v. 1 × 10^10 pfu/mouse, 2 h circulation, perfusion; Ion-Torrent sequencing; mean, N = 3 mice
Description: as §1, §2

P13 = assay: In vivo play-off phage auditioning, P13 tumor; parameters: species or system P13 glioblastoma in athymic nude mice; conditions: phage-displayed peptide; equimolar mix, i.v. 1 × 10^10 pfu/mouse, 2 h circulation, perfusion; Ion-Torrent sequencing; mean, N = 3 mice
Description: as §1, §2

U87-MG = assay: In vivo play-off phage auditioning, U87-MG tumor; parameters: species or system human glioblastoma in athymic nude mice; conditions: phage-displayed peptide; equimolar mix, i.v. 1 × 10^10 pfu/mouse, 2 h circulation, perfusion; Ion-Torrent sequencing; mean, N = 3 mice
Description: as §1, §2

PC3 = assay: In vivo play-off phage auditioning, PC3 tumor; parameters: species or system prostate carcinoma in athymic nude mice; conditions: phage-displayed peptide; equimolar mix, i.v. 1 × 10^10 pfu/mouse, 2 h circulation, perfusion; Ion-Torrent sequencing; mean, N = 3 mice
Description: as §1, §2

Norm. brain = assay: In vivo play-off phage auditioning, normal brain; parameters: species or system athymic nude mice; conditions: phage-displayed peptide; equimolar mix, i.v. 1 × 10^10 pfu/mouse, 2 h circulation, perfusion; Ion-Torrent sequencing; mean, N = 3 mice
Description: as §2

recombinant TNC-C = assay: Cell-free phage binding to TNC-C; parameters: species or system human
Description: For biopanning on recombinant human TNC-C, we used NNK-encoded CX7C and X7 peptide T7 phage libraries with diversity ~5 × 10^8. Throughout our screens, the selected phages were amplified following plate amplification protocol. The 1st and 4th rounds of biopanning were performed on TNC-C immobilized on Costar 96-Well ELISA plate (#3590, Corning Life Sciences, Tewksbury, MA, USA). Briefly, the multiwell plates were coated with 20 µg/ml recombinant TNC-C in 100 µl of PBS overnight at 4 °C, followed by blocking with 1% bovine serum albumin (BSA) in PBS overnight at 4 °C. The phage library (5 × 10^8 pfu in 100 µl of PBS-BSA) was incubated overnight at 4 °C, followed by 6 washes with PBS containing 1% BSA and 0.1% Tween-20 (washing buffer) to remove background phages, and by phage rescue and amplification in E. coli strain BLT5403 (Novagen, EMD Biosciences, MA, USA)[8]. The subsequent rounds of selection were performed on Ni-NTA Magnetic Agarose Beads (QIAGEN, Hilden, Germany) coated with His-6X tagged TNC-C (30 µg/10 µl beads) at room temperature for 1 h in 400 µl of PBS. The TNC-C beads were washed 3 times with washing buffer, followed by incubation with phages in (5 × 10^8 pfu in 100 µl in washing buffer) at room temperature for 1 h. The background phages were removed by rinsing 6 times with washing buffer, and the bound phages were eluted with 1 ml of PBS containing 500 mM Imidazole and 0.1% NP40.
(§3) The eluted phages were titered and amplified for a next round of selection. After 5 rounds of selection, peptide-encoding DNA from a set of 48 phage clones was subjected to Sanger sequencing of peptide-encoding phage DNA[18],[22]. For cell-free binding studies with individual phage clones were incubated with Ni-NTA magnetic beads coated with hexahistidine-tagged TNC-C as above. RPARPAR phage binding to NRP-1-coated beads was used as a positive control. Phage clones displaying heptaglycine peptide (GGGGGGG, G7), or insertless phage clones were used as negative controls. […]
Fig. S13. NRP -1-dependent internalization of PL3 -functionalized AgNPs […]
Supplementary Materials and Methods
Cloning, expression , and purification of TNC-C
Vector Construction. A pF1K (Promega, # FXC00319) derivative plasmid containing full -length cDNA of TNC was used for PCR amplification of cDNA region of TNC-C with Phusion Hot Start II High -Fidelity DNA Polymerase (Thermo Fisher Scientific Inc # F -537L; primer pairs:
5′- CTCCTCT […] -3′ and 5′ -
CAGACA CTCGAG TTATCA TGTAACAATCTC -3′ for domain TNC -C. NdeI and XhoI restriction sites underlined ). The fragments were cloned in the pET28a+ plasmid for TNC -C expression as a n N-terminally His -tagged protein .
Expression and purification of TNC-C. The pET28a+ TNC-C plasmid was used for transformation of E. coli BL21 Rosetta 2 (DE3) pLysS cells (Novagen, #70956). The protein expression was induced by addition of isopropyl β-D-1-thiogalactopyranoside (IPTG) (Sigma, # I6758) to 0.5 mM final concentration and the bacteria were culture d at 18 °C for 16h . Cells were […]
collected by centrifugation, resuspended in ice-cold IMAC buffer (25mM Tris-HCl, 400mM NaCl, 25mM imidazole pH 8, containing EDTA-free protease inhibitor cocktail and DNase I) and lysed by sonification (Bandelin Sonopuls HD 2070, Germany). The cleared bacterial lysate was purified using HiTrap IMAC HP column s (GE Healthcare # 17 -0920-05) on ÄKTA purification system (GE Healthcare ), and the eluate was dialyzed against PBS using 3.5 kDa cut - off 3mL Slide-A-Lyzer Dialysis Cassettes (Thermo Scientific #66330). TNC-C concentration was determined by bicinchoninic acid assay (Thermo Scientific #23227) , and the purity of the proteins was assessed by SDS -PAGE. Mass spectrometry and de novo peptide sequencing were used to confirm the size and sequence of the purified proteins . His-tagged NRP-1 b1b2 domain was expressed and purified as described (Teesalu et al., 2009) .
Single-chain antibodies: The cDNA sequences encoding TNC-C-G11-scFV were retrieved from […]

[1] = test system: recombinant b1b2 domain of NRP-1; assay: Cell-free phage binding to NRP-1; conditions: T7 phage-displayed peptide
Description: as §3
collected by centrifugation, resuspended in ice-cold IMAC buffer (25mM Tris-HCl, 400mM NaCl, 25mM imidazole pH 8, containing EDTA-free protease inhibitor cocktail and DNase I) and lysed by sonification (Bandelin Sonopuls HD 2070, Germany). […] TNC-C concentration was determined by bicinchoninic acid assay (Thermo Scientific #23227) , and the purity of the proteins was assessed by SDS -PAGE. […]
Single-chain antibodies: The cDNA sequences encoding TNC-C-G11-scFV were retrieved from US patent application EP2157102 A1, and synthetic DNA fragments were cloned in the pET28a+ expression plasmid. […] The purified antibodies were analyzed by SDS-PAGE. […]

fibronectin EDB-domain = assay: Cell-free phage binding to fibronectin EDB; conditions: T7 phage-displayed PL3; in words
[2] = test system: tumor tissue across models (4 glioma models and 1 prostate cancer model); assay: In vivo play-off phage auditioning, across tumor models; parameters: species or system nude mice; conditions: T7 phage play-off, i.v., 2 h
Description: as §2

[3] = biological target: recombinant b1b2 domain of neuropilin-1 (NRP-1); assay: phage binding to immobilized recombinant protein (cell-free); conditions: read off a plot
[4] = biological target: recombinant human Tenascin-C FnIII C domain (TNC-C), hexahistidine-tagged; assay: as above; conditions: read off a plot
[5] = biological target: recombinant b1b2 domain of neuropilin-1 (NRP-1); assay: phage binding assay; individual T7 phage clones incubated with Ni-NTA magnetic beads coated with hexahistidine-tagged TNC-C (30 ug/10 ul beads) or NRP-1-coated beads, room temperature 1 h, washing buffer PBS with 1% BSA and 0.1% Tween-20, elution with 500 mM imidazole and 0.1% NP40, phage titered; binding as fold heptaglycine (G7) control phage or percent of parental PL3 phage
[6] = biological target: recombinant b1b2 domain of neuropilin-1 (NRP-1); assay: fluorescence polarisation; fluorescence anisotropy saturation binding; 0.66 uM FAM-Cys-PL3 with 0-112 uM NRP1 or 0-275 uM TNC-C; DPBS with 0.1% Pluronic F-127; 24 h at 25 C; non-specific binding with 500 uM Biotin-Ahx-PL3; global fit, single binding site with ligand depletion
[7] = biological target: recombinant human Tenascin-C FnIII C domain (TNC-C), hexahistidine-tagged (human); assay: as above

## AGRGRLVR (left off: T7 phage particle (peptide displayed on it), end not stated, kept) [PL3]
WT-GBM
  Representation of phage in tumors, WT-GBM: 24.1 fold G7 control phage
P3 SCL
  Representation of phage in tumors, P3 SCL: 2.1 fold G7 control phage
P13
  Representation of phage in tumors, P13: 4.7 fold G7 control phage
U87-MG
  Representation of phage in tumors, U87-MG: 2.1 fold G7 control phage
PC3
  Representation of phage in tumors, PC3: 3.9 fold G7 control phage
Norm. brain
  Representation of phage in control brain tissue (Norm. brain): 0.4 fold G7 control phage
Recombinant TNC-C; T7 phage-displayed peptide, alanine scan expressed as percent binding of parental PL3 phage, 3 independent experiments
  phage binding to recombinant TNC-C (in words): binds; also recorded: robust interaction with TNC-C
[1]; NRP-1 b1b2-coated beads
  phage binding to NRP-1 (in words): binds
[1]; fold over G7 control phage
  PL3 phage binding to b1b2 domain of NRP-1 vs heptaglycine control phage: ~ 200 fold
Fibronectin EDB-domain
  phage binding to fibronectin EDB-domain: did not bind; also recorded: no binding
[2]
  representation in tumor tissue across models: overrepresented in tumor tissue across models tested

## T7 phage displaying PL3 peptide (AGRGRLVR) R5A
[3]
  percent of parent: 190%
[4]
  percent of parent: 49%

## T7 phage displaying PL3 peptide (AGRGRLVR) V7A
[3]
  percent of parent: 180%
[4]
  percent of parent: 76%

## T7 phage displaying PL3 peptide (AGRGRLVR) G4A
[3]
  percent of parent: 96%
[4]
  percent of parent: 90%

## T7 phage displaying PL3 peptide (AGRGRLVR) G2A
[3]
  percent of parent: 92%
[4]
  percent of parent: 100%

## T7 phage displaying PL3 peptide (AGRGRLVR) L6A
[3]
  percent of parent: 140%
[4]
  percent of parent: 34%

## T7 phage displaying PL3 peptide (AGRGRLVR) R8A
[3]
  percent of parent: 19%
[4]
  percent of parent: 26%

## GRLTRVR [Clone-46]
WT-GBM
  Representation of phage in tumors, WT-GBM: 1.9 fold G7 control phage
P3 SCL
  Representation of phage in tumors, P3 SCL: 0.5 fold G7 control phage
P13
  Representation of phage in tumors, P13: 0.5 fold G7 control phage
U87-MG
  Representation of phage in tumors, U87-MG: 0.9 fold G7 control phage
PC3
  Representation of phage in tumors, PC3: 0.9 fold G7 control phage
Norm. brain
  Representation of phage in control brain tissue (Norm. brain): 0.1 fold G7 control phage
Recombinant TNC-C; individual T7 phage clones, Ni-NTA magnetic beads coated with hexahistidine-tagged TNC-C
  TNC-C binding (fold G7 control phage): 115 fold G7 control phage

## T7 phage displaying PL3 peptide (AGRGRLVR) R3A
[4]
  percent of parent: 10%

## AGRGRLVR [T7 phage displaying PL3 peptide (AGRGRLVR)]
[5]
  fold binding over heptaglycine control phage: 200 fold

B1: FAM-Cys-PL3 fluorescent peptide (peptide)
peptide: CAGRGRLVR
modifications: not fully specified (N-terminus); also: 6-aminohexanoic acid spacer, position not given here
[6]
  Kd: 1100 nM
[7]
  Kd: 51 µM

Reference: PMC7118115, “Tumor-penetrating peptide for systemic targeting of Tenascin-C” (Scientific Reports, 2020)
